Test results published in publication PMC10327353 (Breast Cancer Research : BCR, 2023).

Experiment: Phase 1 study: safety and tolerability
Assay type: in vivo
Procedure: The maximum tolerated dose (MTD) of DZD1516 was defined based on safety data and the Bayesian optimal interval (BOIN) design (Additional file 1). The definition of DLT is provided in Additional file 1.
The AE grading was assessed according to the NCI-Common Terminology Criteria for Adverse Events (CTCAE) (version 5.0) and was monitored until 28 days after the last dose.
Eligible patients received single oral dosing of DZD1516 on Cycle 0 Day 1 (C0D1), followed by a 7-day washout. Twice daily oral dosing (bid) of DZD1516 was commenced from C1D1 in a continuous 21-day cycle until disease progression, unacceptable toxicity, or withdrawal of consent. All doses were taken under fed conditions (within 30 minutes after a meal).
Planned dosing consisted of 25, 50, 100, 200, 300, and 400 mg. Each dose escalation cohort will comprise a minimum of three and a maximum of six evaluable patients (except only one patient in the starting dose cohort). The maximum tolerated dose of DZD1516 was defined according to safety data and the Bayesian optimal interval (BOIN) design. Dose escalation/de-escalation rule with target toxicity rate for the MTD is 0.30 with interval of (0.20, 0.33).
DLTs were any adverse event (AE) not clearly attributable to the patient’s disease, including ≥ grade 4 hematological toxicities present for ≥ 4 days, grade 3 thrombocytopenia with bleeding, or grade 4 thrombocytopenia lasting for > 5 days, ≥ grade 3 non-hematological toxicities that is dose-limiting in the judgment of the investigators. Any other toxicity that is greater than that at baseline, is clinically significant or unacceptable, and is judged to be a DLT by the SRC. Exceptions included alopecia of any grade and isolated grade 3 laboratory change without clinical sequelae or clinical significance.
Safety evaluations were conducted at screening, on Day 1, 8, and 15 of Cycle 1, on Day 1 of each subsequent treatment cycle, at the end-of-treatment visit, and clinically indicated. Safety assessments included clinical laboratory measurements (hematology, chemistry, coagulation, and urinalysis), electrocardiogram (ECG), Echocardiogram/MUGA scan, ECOG performance status, vital signs, and physical examinations.

COc1cc(O[C@H]2CCN(C)CC2(F)F)c2c(Nc3ccc(Oc4ccn5ncnc5c4)c(C)c3)ncnc2c1 [DZD1516]
Headache, ≥ Grade 3 (200 mg (N = 5)): 0 (0.0) n (%) | Hemoglobin decreased, Any Grade (200 mg (N = 5)): 3 (60.0) n (%) | Hemoglobin decreased, ≥ Grade 3 (200 mg (N = 5)): 0 (0.0) n (%) | Investigations, Any Grade (200 mg (N = 5)): 4 (80.0) n (%) | Investigations, ≥ Grade 3 (200 mg (N = 5)): 1 (20.0) n (%) | Lipase increased, Any Grade (200 mg (N = 5)): 1 (20.0) n (%) | Lipase increased, ≥ Grade 3 (200 mg (N = 5)): 0 (0.0) n (%) | Malaise, Any Grade (200 mg (N = 5)): 1 (20.0) n (%) | Malaise, ≥ Grade 3 (200 mg (N = 5)): 0 (0.0) n (%) | Metabolism and nutrition disorders, Any Grade (200 mg (N = 5)): 3 (60.0) n (%) | Metabolism and nutrition disorders, ≥ Grade 3 (200 mg (N = 5)): 0 (0.0) n (%) | Musculoskeletal and connective tissue disorders, Any Grade (200 mg (N = 5)): 0 (0.0) n (%) | Musculoskeletal and connective tissue disorders, ≥ Grade 3 (200 mg (N = 5)): 0 (0.0) n (%) | Nausea, Any Grade (200 mg (N = 5)): 1 (20.0) n (%) | Nausea, ≥ Grade 3 (200 mg (N = 5)): 0 (0.0) n (%) | Nervous system disorders, Any Grade (200 mg (N = 5)): 2 (40.0) n (%) | Nervous system disorders, ≥ Grade 3 (200 mg (N = 5)): 0 (0.0) n (%) | Participants with any TEAE, Any Grade (200 mg (N = 5)): 5 (100.0) n (%) | Participants with any TEAE, ≥ Grade 3 (200 mg (N = 5)): 1 (20.0) n (%) | Platelet count decreased, Any Grade (200 mg (N = 5)): 1 (20.0) n (%) | Platelet count decreased, ≥ Grade 3 (200 mg (N = 5)): 0 (0.0) n (%) | Proteinuria, Any Grade (200 mg (N = 5)): 2 (40.0) n (%) | Proteinuria, ≥ Grade 3 (200 mg (N = 5)): 0 (0.0) n (%) | Renal and urinary disorders, Any Grade (200 mg (N = 5)): 2 (40.0) n (%) | Renal and urinary disorders, ≥ Grade 3 (200 mg (N = 5)): 0 (0.0) n (%) | Subjects with any TEAE (200 mg (N = 5)): 5 (100.0) n (%) | Subjects with any drug-related TEAE (200 mg (N = 5)): 5 (100.0) n (%) | Vomiting, Any Grade (200 mg (N = 5)): 3 (60.0) n (%) | Vomiting, ≥ Grade 3 (200 mg (N = 5)): 0 (0.0) n (%) | White blood cell count decreased, Any Grade (200 mg (N = 5)): 0 (0.0) n (%) | White blood cell count decreased, ≥ Grade 3 (200 mg (N = 5)): 0 (0.0) n (%) | Alanine aminotransferase increased, Any Grade (250 mg (N = 5)): 1 (20.0) n (%) | Alanine aminotransferase increased, ≥ Grade 3 (250 mg (N = 5)): 0 (0.0) n (%) | Anemia, Any Grade (250 mg (N = 5)): 1 (20.0) n (%) | Anemia, ≥ Grade 3 (250 mg (N = 5)): 0 (0.0) n (%) | Any TEAE: Grade 3 (250 mg (N = 5)): 1 (20.0) n (%) | Any TEAE: Leading to death (250 mg (N = 5)): 0 (0.0) n (%) | Any TEAE: Leading to dose reduction (250 mg (N = 5)): 0 (0.0) n (%) | Any TEAE: Leading to treatment discontinuation (250 mg (N = 5)): 0 (0.0) n (%) | Any TEAE: Leading to treatment interruption (250 mg (N = 5)): 1 (20.0) n (%) | Any TEAE: SAE (250 mg (N = 5)): 1 (20.0) n (%) | Aspartate aminotransferase increased, Any Grade (250 mg (N = 5)): 2 (40.0) n (%) | Aspartate aminotransferase increased, ≥ Grade 3 (250 mg (N = 5)): 0 (0.0) n (%) | Blood and lymphatic system disorders, Any Grade (250 mg (N = 5)): 1 (20.0) n (%) | Blood and lymphatic system disorders, ≥ Grade 3 (250 mg (N = 5)): 0 (0.0) n (%) | Blood bilirubin increased, Any Grade (250 mg (N = 5)): 1 (20.0) n (%) | Blood bilirubin increased, ≥ Grade 3 (250 mg (N = 5)): 0 (0.0) n (%) | Cardiac disorders, Any Grade (250 mg (N = 5)): 2 (40.0) n (%) | Cardiac disorders, ≥ Grade 3 (250 mg (N = 5)): 0 (0.0) n (%) | Constipation, Any Grade (250 mg (N = 5)): 0 (0.0) n (%) | Constipation, ≥ Grade 3 (250 mg (N = 5)): 0 (0.0) n (%) | Decreased appetite, Any Grade (250 mg (N = 5)): 0 (0.0) n (%) | Decreased appetite, ≥ Grade 3 (250 mg (N = 5)): 0 (0.0) n (%) | Dizziness, Any Grade (250 mg (N = 5)): 1 (20.0) n (%) | Dizziness, ≥ Grade 3 (250 mg (N = 5)): 0 (0.0) n (%) | Drug-related TEAE: Grade 3 (250 mg (N = 5)): 0 (0.0) n (%) | Drug-related TEAE: Leading to death (250 mg (N = 5)): 0 (0.0) n (%) | Drug-related TEAE: Leading to dose reduction (250 mg (N = 5)): 0 (0.0) n (%) | Drug-related TEAE: Leading to treatment discontinuation (250 mg (N = 5)): 0 (0.0) n (%) | Drug-related TEAE: Leading to treatment interruption (250 mg (N = 5)): 0 (0.0) n (%) | Drug-related TEAE: SAE (250 mg (N = 5)): 0 (0.0) n (%) | Fatigue, Any Grade (250 mg (N = 5)): 1 (20.0) n (%) | Fatigue, ≥ Grade 3 (250 mg (N = 5)): 0 (0.0) n (%) | Gastrointestinal disorders, Any Grade (250 mg (N = 5)): 1 (20.0) n (%) | Gastrointestinal disorders, ≥ Grade 3 (250 mg (N = 5)): 1 (20.0) n (%) | General disorders and administration site conditions, Any Grade (250 mg (N = 5)): 2 (40.0) n (%) | General disorders and administration site conditions, ≥ Grade 3 (250 mg (N = 5)): 0 (0.0) n (%) | Headache, Any Grade (250 mg (N = 5)): 2 (40.0) n (%) | Headache, ≥ Grade 3 (250 mg (N = 5)): 0 (0.0) n (%) | Hemoglobin decreased, Any Grade (250 mg (N = 5)): 2 (40.0) n (%) | Hemoglobin decreased, ≥ Grade 3 (250 mg (N = 5)): 0 (0.0) n (%) | Investigations, Any Grade (250 mg (N = 5)): 2 (40.0) n (%) | Investigations, ≥ Grade 3 (250 mg (N = 5)): 0 (0.0) n (%) | Lipase increased, Any Grade (250 mg (N = 5)): 0 (0.0) n (%) | Lipase increased, ≥ Grade 3 (250 mg (N = 5)): 0 (0.0) n (%) | Malaise, Any Grade (250 mg (N = 5)): 1 (20.0) n (%) | Malaise, ≥ Grade 3 (250 mg (N = 5)): 0 (0.0) n (%) | Metabolism and nutrition disorders, Any Grade (250 mg (N = 5)): 1 (20.0) n (%) | Metabolism and nutrition disorders, ≥ Grade 3 (250 mg (N = 5)): 0 (0.0) n (%) | Musculoskeletal and connective tissue disorders, Any Grade (250 mg (N = 5)): 3 (60.0) n (%) | Musculoskeletal and connective tissue disorders, ≥ Grade 3 (250 mg (N = 5)): 1 (20.0) n (%) | Nausea, Any Grade (250 mg (N = 5)): 1 (20.0) n (%) | Nausea, ≥ Grade 3 (250 mg (N = 5)): 0 (0.0) n (%) | Nervous system disorders, Any Grade (250 mg (N = 5)): 4 (80.0) n (%) | Nervous system disorders, ≥ Grade 3 (250 mg (N = 5)): 0 (0.0) n (%) | Participants with any TEAE, Any Grade (250 mg (N = 5)): 5 (100.0) n (%) | Participants with any TEAE, ≥ Grade 3 (250 mg (N = 5)): 1 (20.0) n (%) | Platelet count decreased, Any Grade (250 mg (N = 5)): 0 (0.0) n (%) | Platelet count decreased, ≥ Grade 3 (250 mg (N = 5)): 0 (0.0) n (%) | Proteinuria, Any Grade (250 mg (N = 5)): 0 (0.0) n (%) | Proteinuria, ≥ Grade 3 (250 mg (N = 5)): 0 (0.0) n (%) | Renal and urinary disorders, Any Grade (250 mg (N = 5)): 0 (0.0) n (%) | Renal and urinary disorders, ≥ Grade 3 (250 mg (N = 5)): 0 (0.0) n (%) | Subjects with any TEAE (250 mg (N = 5)): 5 (100.0) n (%) | Subjects with any drug-related TEAE (250 mg (N = 5)): 4 (80.0) n (%) | Vomiting, Any Grade (250 mg (N = 5)): 0 (0.0) n (%) | Vomiting, ≥ Grade 3 (250 mg (N = 5)): 0 (0.0) n (%) | White blood cell count decreased, Any Grade (250 mg (N = 5)): 2 (40.0) n (%) | White blood cell count decreased, ≥ Grade 3 (250 mg (N = 5)): 0 (0.0) n (%) | dose-limiting toxicities (DLTs) (250 mg cohort): none of the patients in the 250 mg cohort experiencing DLTs | Alanine aminotransferase increased, Any Grade (300 mg (N = 4)): 1 (25.0) n (%) | Alanine aminotransferase increased, ≥ Grade 3 (300 mg (N = 4)): 0 (0.0) n (%) | Anemia, Any Grade (300 mg (N = 4)): 0 (0.0) n (%) | Anemia, ≥ Grade 3 (300 mg (N = 4)): 0 (0.0) n (%) | Any TEAE: Grade 3 (300 mg (N = 4)): 3 (75.0) n (%) | Any TEAE: Leading to death (300 mg (N = 4)): 0 (0.0) n (%) | Any TEAE: Leading to dose reduction (300 mg (N = 4)): 3 (75.0) n (%) | Any TEAE: Leading to treatment discontinuation (300 mg (N = 4)): 1 (25.0) n (%) | Any TEAE: Leading to treatment interruption (300 mg (N = 4)): 3 (75.0) n (%) | Any TEAE: SAE (300 mg (N = 4)): 0 (0.0) n (%) | Aspartate aminotransferase increased, Any Grade (300 mg (N = 4)): 1 (25.0) n (%) | Aspartate aminotransferase increased, ≥ Grade 3 (300 mg (N = 4)): 0 (0.0) n (%) | Blood and lymphatic system disorders, Any Grade (300 mg (N = 4)): 0 (0.0) n (%) | Blood and lymphatic system disorders, ≥ Grade 3 (300 mg (N = 4)): 0 (0.0) n (%) | Blood bilirubin increased, Any Grade (300 mg (N = 4)): 0 (0.0) n (%) | Blood bilirubin increased, ≥ Grade 3 (300 mg (N = 4)): 0 (0.0) n (%) | Cardiac disorders, Any Grade (300 mg (N = 4)): 0 (0.0) n (%) | Cardiac disorders, ≥ Grade 3 (300 mg (N = 4)): 0 (0.0) n (%) | Constipation, Any Grade (300 mg (N = 4)): 1 (25.0) n (%) | Constipation, ≥ Grade 3 (300 mg (N = 4)): 0 (0.0) n (%) | Decreased appetite, Any Grade (300 mg (N = 4)): 3 (75.0) n (%)
